Experimental data published in patent EP0357369B1, “The use of asymetric membranes in delivery devices” (priority 1988, dated 1990).
≈ marks a conversion by molar mass, not a printed value. Read-outs that look alike come from different tables or passages of the source.

How the values were obtained:
[1] = Drug solubility in receptor solutions and excipient solutions; type: physicochemical
[2] = Osmotic pressure of saturated solutions of drug and excipients; type: physicochemical; details: saturated solution of the labelled drug or of drug and the other tablet excipients; also printed as about 3 atm

| SMILES | Trimazosin solubility lower in a saturated calcium lactate solution than in water [1] | solubility of trimazosin in the magnesium sulfate solution ([1]; 2.4-wt% magnesium sulfate solution compared with water) | solubility of trimazosin ([1]; water and 4 wt% magnesium sulfate solution) | osmotic pressure of a saturated solution [2] | solubility ([1]; aqueous buffer, gastric buffer pH 1.5, read-out: Doxazosin solubility in the gastric buffer) [µg/mL] | solubility ([1]; aqueous buffer, intestinal buffer pH 7.5, read-out: Doxazosin solubility in the intestinal buffer) [µg/mL] | solubility ([1]; dextrose solutions adjusted to pH 4 with tartaric acid, read-out: doxazosin solubility in all the dextrose solutions) [µg/mL] | solubility ([1]; water, same in lactose and dextrose solutions adjusted to pH 4 with tartaric acid, read-out: doxazosin solubility in water) [µg/mL] |
| --- | --- | --- | --- | --- | --- | --- | --- | --- |
| COc1cc2c(N)nc(N3CCN(C(=O)OCC(C)(C)O)CC3)nc2c(OC)c1OC [trimazosin] | about 40% | the same as the trimazosin solubility in water | the same in both solutions | about 304 kPa |  |  |  |  |
| COc1cc2nc(N3CCN(C(=O)C4COc5ccccc5O4)CC3)nc(N)c2cc1OC (centres unmarked) [doxazosin] |  |  |  |  | ~250 (≈ 0.554 mM) | < 10 | ~10000 (≈ 22.1 mM) | 10000 (≈ 22.1 mM) |
